The values below come from the supplement of paper PMC10307832.

Assay in all cases: relative viability (nuclei count vs DMSO), 5 days (fraction); higher = more cells survive
Compound in the assay “R406 + Bortezomib”: COc1cc(Nc2ncc(F)c(Nc3ccc4c(n3)NC(=O)C(C)(C)O4)n2)cc(OC)c1OC [R406] + CC(C)C[C@H](NC(=O)[C@H](Cc1ccccc1)NC(=O)c1cnccn1)B(O)O [Bortezomib] (partner 0.002 µM)
Put shortly:
(§1)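 One day after seeding in 1536-well plates, lung cancer cell lines were dosed by pin tool. Dosing was either single-drug or a fixed anchor-drug dose plus five library-drug doses (not always all listed) in √10 steps. After 5 days, nuclei were stained in one fix-and-stain step and counted on 4× images, and relative viability is the nuclei count of treated wells over that of vehicle wells, given as the median of duplicate plates.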

Compound in the assay “R406 + Vorinostat”: COc1cc(Nc2ncc(F)c(Nc3ccc4c(n3)NC(=O)C(C)(C)O4)n2)cc(OC)c1OC [R406] + O=C(CCCCCCC(=O)Nc1ccccc1)NO [Vorinostat] (partner 1 µM)
Put shortly: as §1

Compound in the assay “Daporinad + OSI-027”: O=C(/C=C/c1cccnc1)NCCCCC1CCN(C(=O)c2ccccc2)CC1 [Daporinad] + COc1cccc2cc(-c3nc([C@H]4CC[C@H](C(=O)O)CC4)n4ncnc(N)c34)[nH]c12 [OSI-027] (partner 0.5 µM)
A digest of the protocol:
as §1

Compound in the assay “Daporinad + Decitabine”: O=C(/C=C/c1cccnc1)NCCCCC1CCN(C(=O)c2ccccc2)CC1 [Daporinad] + Nc1ncn([C@H]2C[C@H](O)[C@@H](CO)O2)c(=O)n1 [Decitabine] (partner 2 µM)
A digest of the protocol: as §1

As for UMC-11, the relative viability stood at 0.78 in the assay with R406 + Bortezomib (first compound 0.08 µM); 0.996 with R406 + Bortezomib (first compound 0.253 µM); 0.99 with R406 + Bortezomib (first compound 0.8 µM); 0.251 with R406 + Bortezomib (first compound 2.53 µM); 0.342 with R406 + Bortezomib (first compound 8 µM); 0.361 with R406 + Vorinostat (first compound 0.08 µM). In addition, the relative viability came out at 0.312 with R406 + Vorinostat (first compound 0.253 µM); 0.39 with R406 + Vorinostat (first compound 0.8 µM); 0.304 in the assay with R406 + Vorinostat (first compound 2.53 µM); 0.127 in the assay with R406 + Vorinostat (first compound 8 µM); 0.469 with Daporinad + OSI-027 (first compound 0.0005 µM); 0.55 with Daporinad + OSI-027 (first compound 0.001581 µM). Besides, the relative viability with Daporinad + OSI-027 (first compound 0.005 µM) came out at 0.567; with Daporinad + OSI-027 (first compound 0.01581 µM) it was 0.689; in the assay with Daporinad + Decitabine (first compound 0.0005 µM), 0.558; with Daporinad + Decitabine (first compound 0.001581 µM) it was 0.813; in the assay with Daporinad + Decitabine (first compound 0.005 µM) it was 0.625; in the assay with Daporinad + Decitabine (first compound 0.01581 µM), 0.54.
